Some test systems named below: HOP-62; A498; DU-145; SNB-75; U-251; NCI/ADR-RES; HCC 2998; SNB-19; SK-MEL-2; NCI-H23; OVCAR-4; M14; UO-31; HOP-92; MOLT-4; SF-295; SF-268; K562; SW-620; EKVX.
Holding throughout (assay): inhibition of tumour cell growth, NCI panel, 48 h

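Step 1: Grow cells in 96-well plates. Step 2: Expose to compound for 48 hours at 5 concentrations. Step 3: Interpolate endpoints linearly; if unreached, use highest concentration. The concentration for 50% growth inhibition is given as GI50.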 Activity calls are given as the source filed them. No stated cut-off is given here; in the data, active = GI50 up to about 1.1 µM and inactive = higher.

Take `O=c1[nH]c(=O)n(C2OC(CO)C(O)C(O)C2O)cc1F` (stereo not given): the GI50 in the assay on HOP-62 was > 100 µM (inactive); in the assay with A498, > 100 µM (inactive); in the assay on DU-145 it was > 100 µM (inactive); with SNB-75, > 88.5 µM (inactive); in the assay with U-251 it was > 100 µM (inactive); with NCI/ADR-RES it was > 100 µM (inactive). The GI50 in the assay on HCC 2998, in the assay on SNB-19, with SK-MEL-2, with NCI-H23, in the assay with OVCAR-4 and in the assay on M14 was > 100 µM (inactive) each time. Moreover, the GI50 in the assay with UO-31 was > 100 µM (inactive); in the assay with HOP-92 it was > 12.7 µM (inactive); with MOLT-4 it was > 100 µM (inactive); with SF-295, > 100 µM (inactive); in the assay on SF-268, > 100 µM (inactive); in the assay with K562 it was > 100 µM (inactive). In addition, the GI50 in the assay on SW-620 and in the assay on EKVX was > 100 µM (inactive) each time.

In the case of `O=C(O)CC1NC(/C(=C/c2ccccc2)NC(=O)c2ccccc2)OC1=O` (stereo not given), the GI50 was 18.9 µM (inactive) in the assay with HOP-62; > 100 µM (inactive) in the assay on A498; 52.4 µM (inactive) in the assay with DU-145; 29 µM (inactive) with SNB-75; 18.4 µM (inactive) with U-251; 21.7 µM (inactive) in the assay on NCI/ADR-RES. The GI50 was 37.9 µM (inactive) in the assay with HCC 2998; 25.9 µM (inactive) with SNB-19; 27.6 µM (inactive) with SK-MEL-2; 42.7 µM (inactive) in the assay on NCI-H23; 51.1 µM (inactive) in the assay with OVCAR-4; 17.1 µM (inactive) in the assay with M14. Moreover, the GI50 in the assay with UO-31 was 23.8 µM (inactive); in the assay on HOP-92, > 100 µM (inactive); in the assay on MOLT-4, 17.7 µM (inactive); in the assay with SF-295, 38.1 µM (inactive); with SF-268 it was 36.3 µM (inactive); in the assay with K562, 21.3 µM (inactive). Also, the results for the GI50 in the assay on SW-620 and in the assay with EKVX were 19.5 µM (inactive) and 39.6 µM (inactive), respectively.

As for `CC1OC(OC2C(OC(=O)[C@]34CCC(C)(C)C[C@H]3C3=CC[C@@H]5[C@@]6(C)CC[C@H](OC7OC(C(=O)O)C(O)C(O)C7O)C(C)(C)[C@@H]6CC[C@@]5(C)[C@]3(C)C[C@H]4O)OCC(O)C2O)C(O)C(O)C1OC1OCC(OC2OCC(O)C(O)C2O)C(O)C1O` (stereo not given in full), the GI50 was 13.2 µM (inactive) in the assay on HOP-62; 1.48 µM (inactive) with A498; 11.3 µM (inactive) in the assay on DU-145; 13.2 µM (inactive) in the assay on SNB-75; 7.85 µM (inactive) with U-251; 11.1 µM (inactive) in the assay with NCI/ADR-RES. Further, the GI50 is 1.53 µM (inactive) in the assay on HCC 2998; 5.51 µM (inactive) with SNB-19; 2.96 µM (inactive) in the assay on SK-MEL-2; 2.14 µM (inactive) in the assay with NCI-H23; 5.32 µM (inactive) in the assay on OVCAR-4; 3.52 µM (inactive) in the assay on M14. The GI50 in the assay with UO-31 is 2.13 µM (inactive); with HOP-92, 6.01 µM (inactive); in the assay with MOLT-4, 14.8 µM (inactive); with SF-295 it was 10.2 µM (inactive); in the assay with SF-268, 12.6 µM (inactive); in the assay with K562 it was 11.4 µM (inactive). Also, the values for the GI50 in the assay on SW-620 and in the assay on EKVX were 10.9 µM (inactive) and 4.16 µM (inactive), respectively.

For the molecule `CC1CCCC(C(O)CC2CC(=O)NC(=O)C2)C1O` (stereo not given), the GI50 in the assay with HOP-62, in the assay with A498, in the assay with DU-145, with SNB-75, in the assay on U-251 and in the assay on NCI/ADR-RES was > 100 µM (inactive) each time. The GI50 in the assay with HCC 2998, with SNB-19, with SK-MEL-2, with NCI-H23, with OVCAR-4 and in the assay on M14 was > 100 µM (inactive) each time. Also, the GI50 in the assay with UO-31, in the assay with HOP-92, with MOLT-4, with SF-295, in the assay with SF-268 and with K562 was > 100 µM (inactive) throughout. The GI50 in the assay on SW-620 and with EKVX was > 100 µM (inactive) each time.

Take `O=c1oc2ccccc2cc1-c1nnc(-c2ccccc2)s1`: the GI50 with HOP-62 was 16.1 µM (inactive); in the assay with A498, 15.1 µM (inactive); with DU-145 it was > 100 µM (inactive); with SNB-75 it was 15.5 µM (inactive); with U-251, 12.6 µM (inactive); with NCI/ADR-RES, 12.1 µM (inactive). The GI50 was 12 µM (inactive) in the assay with HCC 2998; 41.6 µM (inactive) in the assay with SNB-19; > 48.8 µM (inactive) in the assay with SK-MEL-2; > 51.2 µM (inactive) with NCI-H23; > 68.2 µM (inactive) in the assay on OVCAR-4; > 56.1 µM (inactive) in the assay on M14. In addition, the GI50 with UO-31 was 55.6 µM (inactive); with HOP-92, > 100 µM (inactive); in the assay on MOLT-4, 19.1 µM (inactive); in the assay on SF-295 it was 28.2 µM (inactive); in the assay with SF-268, > 57.9 µM (inactive); with K562, 9.89 µM (inactive). The GI50 in the assay with SW-620 is 12.1 µM (inactive); in the assay on EKVX it was > 58.9 µM (inactive).

On to `Cn1c(=O)c2c(nc(NCCCCl)n2CC(=O)NCCCCl)n(C)c1=O`, for which the GI50 in the assay on HOP-62, in the assay with A498, in the assay on DU-145, in the assay with SNB-75, with U-251 and in the assay with NCI/ADR-RES was > 100 µM (inactive) in each case. The GI50 in the assay with HCC 2998, with SNB-19, in the assay on SK-MEL-2, with NCI-H23, in the assay on OVCAR-4 and in the assay with M14 was > 100 µM (inactive) in each case. For the same molecule, the GI50 with UO-31, with HOP-92, in the assay on MOLT-4, in the assay with SF-295, in the assay with SF-268 and in the assay with K562 was > 100 µM (inactive) each time. Further, the GI50 with SW-620 and in the assay with EKVX was > 100 µM (inactive) in each case.

For `COc1ccc(/N=N/c2ccc3oc(=O)c(C(=O)Nc4ccc(OC)cc4)cc3c2)cc1`, the GI50 with HOP-62 is 13.9 µM (inactive); in the assay on A498, 2.77 µM (inactive); in the assay with DU-145, 15.6 µM (inactive); with SNB-75 it was 16.2 µM (inactive); in the assay on U-251, 13.4 µM (inactive); in the assay with NCI/ADR-RES it was 16.2 µM (inactive). The GI50 in the assay on HCC 2998 was 19.4 µM (inactive); in the assay on SNB-19, 22.5 µM (inactive); with SK-MEL-2, 14 µM (inactive); in the assay on NCI-H23 it was 17.4 µM (inactive); with OVCAR-4 it was 13.4 µM (inactive); in the assay on M14 it was 16.9 µM (inactive). In addition, the GI50 in the assay with UO-31 was 14 µM (inactive); in the assay on HOP-92, 18.4 µM (inactive); in the assay with MOLT-4, 6.15 µM (inactive); in the assay with SF-295, 21.3 µM (inactive); in the assay with SF-268, 9.02 µM (inactive); with K562 it was 18.1 µM (inactive). The GI50 in the assay with SW-620 was 18.2 µM (inactive); in the assay on EKVX, 28.5 µM (inactive).

`CCOC(=O)CCCN`: the GI50 in the assay with HOP-62, with A498, in the assay on DU-145, with SNB-75, in the assay with U-251 and in the assay with NCI/ADR-RES was > 100 µM (inactive) throughout. Moreover, the GI50 in the assay on HCC 2998, with SNB-19, in the assay with SK-MEL-2, in the assay on NCI-H23, in the assay with OVCAR-4 and in the assay with M14 was > 100 µM (inactive) throughout. In addition, the GI50 in the assay on UO-31, in the assay on HOP-92, in the assay with MOLT-4, with SF-295, in the assay on SF-268 and in the assay with K562 was > 100 µM (inactive) throughout. Also, the GI50 with SW-620 and with EKVX was > 100 µM (inactive) each time.

For the molecule `CN(C)c1ccc2cc3ccc(N(C)C)cc3nc2c1` [ACRIDINE ORANGE], the GI50 with HOP-62 is 2.02 µM (inactive); with A498, 4.08 µM (inactive); in the assay on DU-145, 1.32 µM (inactive); with SNB-75, 2.1 µM (inactive); in the assay on U-251, 1.24 µM (inactive); in the assay with NCI/ADR-RES, 1.43 µM (inactive). In addition, the GI50 is 0.56 µM (active) with HCC 2998; 0.984 µM (active) in the assay with SNB-19; 6.18 µM (inactive) with SK-MEL-2; 1.51 µM (inactive) in the assay on NCI-H23; 0.853 µM (active) with OVCAR-4; 3.05 µM (inactive) with M14. The GI50 is 0.871 µM (active) with UO-31; 4.32 µM (inactive) in the assay on HOP-92; 0.134 µM (active) in the assay on MOLT-4; 2.08 µM (inactive) with SF-295; 1.52 µM (inactive) with SF-268; 0.397 µM (active) in the assay on K562. Also, the GI50 is 0.49 µM (active) in the assay on SW-620 and 1.87 µM (inactive) with EKVX.

For the origin of these results see ChEMBL document CHEMBL1201862, “PubChem BioAssay data set” (2004).
